Laboratory results from PubChem BioAssay (NCI).
Where “and” joins values, the source holds several entries; their conditions need not be identical. Equal values may be shown once.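 Results reflect a 48-hour exposure of cells in 96-well plates to compound at five concentrations. Here, GI50 denotes the concentration required for 50% inhibition of growth. Definition used: TGI = concentration required for complete inhibition of growth.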

Legend:
Assay in all cases: NCI anticancer screen, dose series, 48 h
IGROV1 ovarian = system: IGROV1 ovarian
SNB-75 CNS = system: SNB-75 CNS
HCT-15 colon = system: HCT-15 colon
UACC-257 melanoma = system: UACC-257 melanoma
MDA-MB-231 breast = system: MDA-MB-231 breast
NCI-H522 lung = system: NCI-H522 lung
DU-145 prostate = system: DU-145 prostate
RXF 393 renal = system: RXF 393 renal
T-47D breast = system: T-47D breast
HOP-62 NSCLC = system: HOP-62 NSCLC

SMILES	GI50 (IGROV1 ovarian)	TGI (IGROV1 ovarian)	GI50 (SNB-75 CNS)	TGI (SNB-75 CNS)	GI50 (HCT-15 colon)	TGI (HCT-15 colon)	GI50 (UACC-257 melanoma)	TGI (UACC-257 melanoma)	GI50 (MDA-MB-231 breast)	TGI (MDA-MB-231 breast)	GI50 (NCI-H522 lung)	TGI (NCI-H522 lung)	GI50 (DU-145 prostate)	TGI (DU-145 prostate)	GI50 (RXF 393 renal)	TGI (RXF 393 renal)	GI50 (T-47D breast)	TGI (T-47D breast)	GI50 (HOP-62 NSCLC)	TGI (HOP-62 NSCLC)
O=c1[nH]c2cc(Cl)c(Cl)cc2n2cc3ccccc3c12	17.4 µM	31.2 µM	21.6 µM	53.3 µM	16.6 µM	30.2 µM	20.3 µM	48.6 µM	17.2 µM	32.7 µM	10.2 µM	31 µM	18 µM	31.8 µM	17.4 µM	31.2 µM	30.8 µM	75.5 µM		
COc1ccc(NC(=O)c2sc3nc4c(cc3c2N)CCCC4)cc1	0.929 µM	> 100 µM	0.342 µM	11.6 µM	0.471 µM	> 100 µM			5.26 µM	> 100 µM	0.234 µM	0.772 µM	0.982 µM	> 100 µM	0.452 µM	4.72 µM	0.547 µM	96.9 µM	0.752 µM	> 100 µM
CN(C)C/C=C/C(=O)Nc1ccc(C(=O)N2CCC[C@@H](Nc3ncc(Cl)c(-c4c[nH]c5ccccc45)n3)C2)cc1	0.149 µM	11.3 µM	0.0978 µM	0.444 µM	8.65 µM	23.2 µM	0.234 µM	1.32 µM	0.138 µM	6.71 µM	0.0344 µM	0.228 µM	0.215 µM	11.1 µM	0.115 µM	0.561 µM	0.0427 µM	4.27 µM	0.432 µM	5.74 µM
C[C@@H]1C/C=C\C(=O)O[C@H](/C=C/C#C/C=C/C(C)(C)[C@@H](O)c2cccc(O)c2Br)[C@@H](C)/C=C/[C@H](C)C[C@H](OC(N)=O)C1	0.0344 µM	18.5 µM	0.255 µM	21.2 µM	0.034 µM	11.9 µM	0.0322 µM	4.08 µM	0.0139 µM	2.12 µM	0.0417 µM	14.7 µM	0.0663 µM	19.4 µM	0.636 µM	7.81 µM	0.0354 µM	22.9 µM	0.633 µM	21.4 µM
COc1ccc(C2ONC3=NCCN32)cc1 (configuration not stated)	73.2 µM	> 100 µM	> 100 µM	> 100 µM	29.2 µM	> 100 µM	> 100 µM	> 100 µM	> 100 µM	> 100 µM	> 100 µM	> 100 µM	70.3 µM	> 100 µM	> 100 µM	> 100 µM	99.4 µM	> 100 µM	84.9 µM	> 100 µM
Cc1cc(NC(=O)NC(=O)c2ccccc2N(C)C)ccc1Oc1ncc(Br)cn1	0.356 µM	> 63.1 µM	0.11 µM	0.428 µM and 0.555 µM		> 68.1 µM		> 100 µM		52.5 µM	0.164 µM	0.408 µM and 0.587 µM		> 63.1 µM	0.242 µM	0.698 µM and 6.37 µM		> 56.2 µM		57.9 µM
Cc1cc(=O)oc2cc(OCCn3c(C)nn(-c4ccc(Cl)cc4)c3=O)ccc12	35 µM	> 100 µM	2.22 µM	15.1 µM	3.2 µM	> 100 µM			4.53 µM	> 100 µM	3.85 µM	33.2 µM	3.9 µM	> 100 µM	2.76 µM	30 µM	7.55 µM	> 100 µM	3.05 µM	32.9 µM
Cn1cnc([N+](=O)[O-])c1Sc1nc(N)nc2nc[nH]c12	14 µM	> 100 µM	1.08 µM	> 100 µM	5.11 µM	> 100 µM	8.38 µM	> 100 µM	4.88 µM	> 100 µM	3.56 µM	> 90.5 µM	2.91 µM	> 100 µM	5.09 µM	> 91.7 µM	8.57 µM	> 100 µM	1.22 µM	> 100 µM
COc1ccccc1/C=C\C(=O)c1ccccc1	5.14 µM	18.1 µM	13.6 µM	27 µM	4.8 µM	19.3 µM	12.9 µM	26.2 µM	12.5 µM	30 µM	2.39 µM	7 µM	8.38 µM	20.5 µM	13 µM	27.4 µM	5.44 µM	20 µM	17.3 µM	32.6 µM
O=C(O)Cn1ccnc1[N+](=O)[O-]		> 100 µM		> 100 µM		> 100 µM		> 100 µM		> 100 µM		> 100 µM		> 100 µM		> 100 µM		> 100 µM		> 100 µM
O=C(Nc1ccccc1O)c1ccc(CNC(=O)c2ccsc2Nc2ccnc(C(F)(F)F)c2)cc1	2.8 µM	13.5 µM	2.57 µM	43.5 µM	3.31 µM	18.9 µM	1.52 µM	7.03 µM	2.85 µM	13.2 µM	1.77 µM	6.86 µM	2.12 µM	5.67 µM	1.93 µM	4.82 µM	2.71 µM	> 100 µM	7.84 µM	> 100 µM
CCN(CC)CCOc1ccc(/C=C2\CC3C4CC=C5C[C@@H](OC(C)=O)CC[C@]5(C)C4CC[C@]3(C)C2=O)cc1OC (some centres not stated)	4.65 µM	16.4 µM	20.5 µM	58.1 µM	2.96 µM	10 µM	6.97 µM	31.6 µM	21.1 µM	> 100 µM	14.4 µM	33.1 µM	3.87 µM	16.6 µM	2.58 µM	7.77 µM	38.2 µM	> 100 µM	4.34 µM	16.8 µM
CC1(C)C2CCC13C(=O)C1OC3(C2)C2C(=O)c3c(O)cccc3C(=O)C12 (configuration not stated)			7.28 µM	22.3 µM	0.362 µM	0.905 µM	0.792 µM	2.43 µM	0.472 µM	1.33 µM	3.2 µM	10.1 µM	0.196 µM	0.386 µM	1.56 µM	3.5 µM	0.906 µM	6.58 µM	16.1 µM	31.7 µM
CC[C@@]1(O)C(=O)OCc2c1cc1n(c2=O)Cc2cc3c(N)cccc3nc2-1		6.26 µM		0.0711 µM and 0.231 µM		33.7 µM		2.99 µM		> 19.9 µM	0.0234 µM	1.35 µM	0.004 µM	< 0.0299 µM	0.0893 µM	0.34 µM	0.00662 µM		0.00637 µM	0.0489 µM
CCCn1cnc2c(SCc3ccccc3)nc(N)nc21	> 100 µM	> 100 µM	> 100 µM	> 100 µM	37.8 µM	> 100 µM	> 100 µM	> 100 µM	> 100 µM	> 100 µM	> 100 µM	> 100 µM	> 100 µM	> 100 µM	24.4 µM	> 100 µM	56.9 µM	> 100 µM	> 100 µM	> 100 µM
COc1ccc(/C=C(/C(=O)n2cnnn2)c2cc(OC)c(OC)c(OC)c2)cc1	4.69 µM	> 100 µM	3.34 µM	> 100 µM	2.03 µM	> 100 µM	> 100 µM	> 100 µM	4.7 µM	> 100 µM	2.26 µM	6.67 µM	3.5 µM	> 100 µM	3.91 µM	> 100 µM	> 100 µM	> 100 µM	4.82 µM	> 100 µM
Cn1cc(CO)c2ccccc21	10.9 µM	> 100 µM	27.6 µM	> 100 µM	22.4 µM	> 100 µM	> 100 µM	> 100 µM	52 µM	> 100 µM	23.4 µM	> 100 µM	> 100 µM	> 100 µM	49.7 µM	> 100 µM	62.1 µM	> 100 µM	73.8 µM	> 100 µM
NC(=O)c1cc(I)ccc1NC(=O)COc1ccccc1	2.34 µM	> 100 µM	0.316 µM	4.49 µM	0.33 µM	> 100 µM	41.7 µM	> 100 µM	1.32 µM	26.6 µM	0.508 µM	12.9 µM	0.457 µM	32.2 µM	0.453 µM	4.53 µM	0.556 µM	> 100 µM	0.598 µM	12.4 µM
CN(C)CCCN1c2ccccc2Sc2ccc(Cl)cc21	11.7 µM and 4.63 µM	26.7 µM and 18.4 µM	4.63 µM and 6.09 µM	19.7 µM and 23 µM	3.69 µM and 4.7 µM	14.3 µM and 16.6 µM	2.08 µM and 3.24 µM	4.33 µM and 13 µM	1.99 µM and 2.1 µM	5.35 µM and 6.87 µM	2.74 µM and 2.79 µM	7.16 µM and 8.9 µM	11.7 µM and 11.2 µM	24.1 µM and 23.4 µM	3.16 µM and 2.85 µM	12.2 µM and 11 µM	5.92 µM and 8.6 µM	20 µM and 23.4 µM	14.6 µM and 11.7 µM	28.8 µM and 24.9 µM
Fc1c[c-]c(-c2ccccn2)c(F)c1.[CH3-].[Pt+2].c1ccc(P(C[PH+](c2ccccc2)c2ccccc2)c2ccccc2)cc1	0.47 µM	1.86 µM	0.967 µM	4.14 µM	0.975 µM	2.25 µM	0.696 µM	2.93 µM	0.724 µM	1.78 µM	0.96 µM	3.16 µM	1.06 µM	6.47 µM	0.702 µM	1.49 µM	0.474 µM	3.27 µM	0.932 µM	3.71 µM
CC(C)(CO)N=Cc1ccccc1[O-].CC(C)(CO)N=Cc1ccccc1[O-].[Co+2]	84.3 µM	> 100 µM	> 86.4 µM	> 100 µM	69.7 µM	> 100 µM	30.1 µM	> 100 µM	> 74.9 µM	> 100 µM	30.4 µM	90.5 µM	42.1 µM	> 100 µM	> 100 µM	> 100 µM	10.1 µM	> 100 µM	> 100 µM	> 100 µM
O=C(CCN1CCCC1)Nc1ccc2c(Nc3ccccc3)c3ccccc3nc2c1	0.474 µM	3.02 µM	1.09 µM	2.33 µM	0.367 µM	2.36 µM	1.75 µM	3.83 µM	1.41 µM	3.45 µM	1.03 µM	2.88 µM	0.172 µM	1.64 µM	0.981 µM	2.65 µM	0.399 µM	2.76 µM	0.404 µM	2.51 µM
O=C(O)C1C(C(=O)O)C2(Cl)C(Cl)=C(Cl)C1(Cl)C2(Cl)Cl.[Cd] (configuration not stated)	17.7 µM	34.2 µM	10.7 µM	26.4 µM	21.4 µM	46.6 µM	15.5 µM	30.7 µM	20.9 µM	42.4 µM	0.412 µM	1.78 µM	17.8 µM	34.5 µM	13.7 µM	30.5 µM	11.4 µM	28.1 µM	22.7 µM	48.6 µM
CC[C@H](C)[C@H](NC(=O)[C@H]1CCCCN1C)C(=O)N(C)[C@H](C[C@@H](OC(C)=O)c1nc(C(=O)N[C@@H](Cc2ccccc2)C[C@H](C)C(=O)OC)cs1)C(C)C	0.002 µM and 0.0025 µM	> 25 µM	0.000335 µM and 0.0025 µM		0.000332 µM and 0.0025 µM		8.72 µM	> 25 µM	0.00102 µM and 0.0025 µM	> 25 µM	0.00028 µM and < 0.0025 µM	0.0135 µM and < 0.0025 µM	0.000208 µM		0.0025 µM	22.7 µM	11.8 µM	> 25 µM	0.00052 µM and 0.0025 µM	> 25 µM
Nc1ncnc2c1c(-c1ccc(Oc3ccccc3)cc1)nn2C[C@@H]1SSC[C@@H]1O	0.839 µM	3.26 µM	1.78 µM	7.56 µM	0.57 µM	5.98 µM	0.374 µM	11.9 µM	1.14 µM	4.13 µM	2.15 µM	6.98 µM	1.36 µM	4.02 µM	1.46 µM	5.6 µM	0.305 µM	2.27 µM	0.202 µM	1.24 µM
CC(C)(C)[Si](C)(C)OCC1OC(n2cnc3c(N)ncnc32)C(O)C1O (configuration not stated)		> 100 µM		> 100 µM		> 100 µM		> 100 µM		> 100 µM		> 100 µM		> 100 µM		> 100 µM		> 100 µM		> 100 µM
